Numbering of substitutions follows the chain as printed. Calls of active or inactive are those of the source. The rule behind the calls is not given here.
Assays:
Mus musculus [1] = species: Mus musculus; experiment: Activity of human GABA alpha-1-beta-2-gamma-2S327 receptor in wild type mouse assessed as ethanol induced GABA current
[2] = target: T1, Protein kinase C epsilon type (Homo sapiens, UniProt Q02156); experiment: Inhibition of human PKCepsilon
T1 sequence (Q02156 whole entry): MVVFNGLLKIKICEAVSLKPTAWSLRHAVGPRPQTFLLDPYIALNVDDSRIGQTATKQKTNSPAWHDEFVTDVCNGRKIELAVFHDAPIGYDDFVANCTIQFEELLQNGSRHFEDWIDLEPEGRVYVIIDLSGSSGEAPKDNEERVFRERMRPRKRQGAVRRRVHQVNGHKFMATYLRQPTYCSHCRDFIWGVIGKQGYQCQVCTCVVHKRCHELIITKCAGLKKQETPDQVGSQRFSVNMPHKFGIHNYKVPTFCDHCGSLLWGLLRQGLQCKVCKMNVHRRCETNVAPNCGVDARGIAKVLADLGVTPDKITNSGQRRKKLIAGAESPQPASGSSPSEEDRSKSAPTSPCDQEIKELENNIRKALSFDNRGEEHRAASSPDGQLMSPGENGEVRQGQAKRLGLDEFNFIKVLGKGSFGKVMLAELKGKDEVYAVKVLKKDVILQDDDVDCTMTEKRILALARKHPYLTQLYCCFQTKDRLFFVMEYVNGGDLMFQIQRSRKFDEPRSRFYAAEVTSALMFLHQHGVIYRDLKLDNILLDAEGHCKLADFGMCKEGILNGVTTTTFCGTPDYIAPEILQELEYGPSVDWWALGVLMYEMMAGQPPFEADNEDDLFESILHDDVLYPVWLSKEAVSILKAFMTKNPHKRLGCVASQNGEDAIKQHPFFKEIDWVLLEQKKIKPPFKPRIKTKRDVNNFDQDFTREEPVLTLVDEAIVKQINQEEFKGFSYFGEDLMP

[3] = target: Protein kinase C epsilon type (Homo sapiens, UniProt Q02156, M486A); experiment: (§1) Inhibition of human PKCepsilon type M486A mutant
[4] = target: Protein kinase C delta type (Homo sapiens, UniProt Q05655); experiment: Inhibition of human PKCdelta
[5] = target: Protein kinase C gamma type (Homo sapiens, UniProt P05129); experiment: Inhibition of human PKCgamma
HEK293 [6] = experiment: Activity of human GABA alpha-1-beta-2-gamma-2S327 receptor in HEK293 cells expressing as-PKCepsilon cells assessed as induction of ethanol induced GABA current; format: cell-based
HEK293 [7] = experiment: Activity of human GABA alpha-1-beta-2-gamma-2L S327A mutant in HEK293 cells expressing as-PKCepsilon assessed as inhibition of ethanol induced GABA current at 30 uM; format: cell-based
Mus musculus [8] = experiment: Induction of rotarod ataxia in PKCepsilon deficient mouse at 1 mg/kg; format: functional, organism-based; parameters: dose 1 mg/kg
[9] = system: T2, Protein kinase C epsilon type (Homo sapiens), Q02156 [M486A]; experiment: as §1
T2 sequence (whole entry): T1 sequence (Q02156 whole entry) with M486A

[10] = target: T3, Gamma-aminobutyric acid receptor subunit alpha-1 (Homo sapiens) (UniProt P14867); settings: HEK293
T3 sequence (whole entry): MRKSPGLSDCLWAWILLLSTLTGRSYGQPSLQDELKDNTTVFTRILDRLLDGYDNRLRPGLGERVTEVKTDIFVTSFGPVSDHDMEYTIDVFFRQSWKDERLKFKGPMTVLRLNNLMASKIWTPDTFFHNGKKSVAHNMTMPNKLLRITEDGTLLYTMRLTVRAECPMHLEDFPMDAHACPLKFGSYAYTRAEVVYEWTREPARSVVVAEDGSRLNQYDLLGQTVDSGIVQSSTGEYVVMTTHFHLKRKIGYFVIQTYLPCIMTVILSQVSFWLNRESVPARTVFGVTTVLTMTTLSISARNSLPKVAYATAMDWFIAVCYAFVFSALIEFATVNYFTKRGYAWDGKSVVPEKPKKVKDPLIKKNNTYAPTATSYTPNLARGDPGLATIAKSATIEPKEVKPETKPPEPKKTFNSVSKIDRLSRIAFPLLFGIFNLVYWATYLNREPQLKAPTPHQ

HEK293 [11] = settings: Homo sapiens
[12] = target: T4, GABA-A receptor; alpha-1/beta-2/gamma-2 (Homo sapiens) (UniProt P14867+P47870+P18507); settings: HEK293
[13] = target: T4, GABA-A receptor; alpha-1/beta-2/gamma-2 (Homo sapiens); settings: HEK293; remark: listed apart in the source
HEK293 [14] = settings: Homo sapiens; remark: listed apart in the source

Chain of Protein kinase C delta type (Q05655 whole entry): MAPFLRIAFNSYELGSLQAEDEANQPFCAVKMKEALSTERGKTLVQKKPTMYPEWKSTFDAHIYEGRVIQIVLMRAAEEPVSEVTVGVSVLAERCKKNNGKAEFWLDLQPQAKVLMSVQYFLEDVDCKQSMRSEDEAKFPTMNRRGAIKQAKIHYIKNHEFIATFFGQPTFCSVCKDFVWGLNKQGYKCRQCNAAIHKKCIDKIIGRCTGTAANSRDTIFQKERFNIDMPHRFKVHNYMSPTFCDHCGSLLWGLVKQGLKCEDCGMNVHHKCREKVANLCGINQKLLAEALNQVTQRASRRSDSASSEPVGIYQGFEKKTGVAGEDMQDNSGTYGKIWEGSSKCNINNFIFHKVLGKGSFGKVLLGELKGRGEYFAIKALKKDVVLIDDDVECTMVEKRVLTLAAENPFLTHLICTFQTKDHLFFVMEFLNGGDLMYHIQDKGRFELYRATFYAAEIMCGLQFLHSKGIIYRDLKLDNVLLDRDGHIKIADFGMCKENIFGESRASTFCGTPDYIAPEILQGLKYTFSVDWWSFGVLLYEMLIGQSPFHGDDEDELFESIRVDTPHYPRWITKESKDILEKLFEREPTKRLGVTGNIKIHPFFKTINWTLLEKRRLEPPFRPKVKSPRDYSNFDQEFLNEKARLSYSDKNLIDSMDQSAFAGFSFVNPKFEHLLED
Chain of Protein kinase C epsilon type (Homo sapiens, UniProt Q02156, M486A) (Q02156 whole entry M486A): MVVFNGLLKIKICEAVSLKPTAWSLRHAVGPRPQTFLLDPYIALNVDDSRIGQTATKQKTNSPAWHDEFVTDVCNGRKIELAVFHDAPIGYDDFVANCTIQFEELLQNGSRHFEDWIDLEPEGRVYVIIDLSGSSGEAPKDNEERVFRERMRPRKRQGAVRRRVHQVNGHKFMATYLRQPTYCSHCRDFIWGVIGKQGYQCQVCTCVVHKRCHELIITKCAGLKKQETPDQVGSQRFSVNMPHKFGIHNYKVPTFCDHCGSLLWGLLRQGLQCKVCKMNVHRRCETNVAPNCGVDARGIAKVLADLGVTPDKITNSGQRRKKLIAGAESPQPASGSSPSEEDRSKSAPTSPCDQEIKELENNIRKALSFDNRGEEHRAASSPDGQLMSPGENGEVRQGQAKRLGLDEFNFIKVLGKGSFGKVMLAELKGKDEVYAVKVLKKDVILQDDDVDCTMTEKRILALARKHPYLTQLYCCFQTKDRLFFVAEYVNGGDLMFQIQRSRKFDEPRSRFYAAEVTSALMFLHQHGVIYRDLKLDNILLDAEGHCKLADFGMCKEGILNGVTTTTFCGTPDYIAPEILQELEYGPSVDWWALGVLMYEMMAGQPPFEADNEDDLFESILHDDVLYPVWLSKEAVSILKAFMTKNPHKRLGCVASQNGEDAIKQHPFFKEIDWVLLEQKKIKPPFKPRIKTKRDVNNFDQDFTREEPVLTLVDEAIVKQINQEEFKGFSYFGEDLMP

Question: How did the Activity (Mus musculus [1]) turn out when `CN1C(=O)CN=C(c2ccccc2)c2cc(Cl)ccc21` was run?
Answer: Its Activity is 75%.

Question: Which IC50 [2] does the source give for `CC(C)(C)n1nc(-c2cccc3ccccc23)c2c(N)ncnc21` here?
Answer: The IC50 was greater than 100000 nM.

Question: What about the IC50 [3] of the same molecule?
Answer: Its IC50 is 21 nM.

Question: What about the IC50 [4] of the same molecule?
Answer: Its IC50 is greater than 100000 nM.

Question: What about the IC50 [5] of the same molecule?
Answer: The IC50 was greater than 100000 nM.

Question: What about the Activity (HEK293 [6]) of the same molecule?
Answer: Its Activity is “Active”.

Question: How did the Activity (HEK293 [7]) turn out when `CN1CCc2cc3c(cc2[C@H]1[C@@H]1OC(=O)c2c1ccc1c2OCO1)OCO3` was run?
Answer: Its Activity is “Active”.

Question: What does the source list for `Cc1ccc(-c2nc3ccc(C)cn3c2CC(=O)N(C)C)cc1`?
Answer: Activity (Mus musculus [8]): Active; Activity [9]: Active

Question: Which results are given for `CN1C(=O)CN=C(c2ccccc2F)c2cc([N+](=O)[O-])ccc21`?
Answer: logEC50 [10]: 1.99; logEC50 (HEK293 [11]): 1.59; logEC50 [12]: 1.46; logEC50 [13]: 1.46; logEC50 (HEK293 [14]): 1.8

Question: What does the source list for `CN(C)CCCn1cc(C2=C(c3c[nH]c4ccccc34)C(=O)NC2=O)c2ccccc21` [GF-109203]?
Answer: IC50 [2]: 6 nM; IC50 [3]: 12 nM; IC50 [4]: 32 nM; IC50 [5]: 30 nM

Reference: ChEMBL document CHEMBL1156516, “Protein kinase C epsilon regulates gamma-aminobutyrate type A receptor sensitivity to ethanol and benzodiazepines through phosphorylation of gamma2 subunits” (J Biol Chem, 2007)
